Patent US20260151398A1, “COMPOUNDS FOR REDUCING CHOLESTEROL AND TREATING LIVER AND KIDNEY DISEASE” (McMaster University, priority 2021, published 2026)
Entries after “also recorded” stand apart in the source; their conditions may differ.

Assays:
SREBP2 = SREBP2 expression and activation in hepatocytes (real-time PCR, SRE-GFP reporter, immunoblot, immunofluorescence); assay type: cell-based, human, mouse; details: for activation and nuclear localization of SREBP2: immunoblots of whole-cell lysates
Protocol: Cells were washed in phosphate-buffered saline (PBS), lysed in 4× SDS-PAGE lysis buffer and separated on 7-10% polyacrylamide gels in denaturing conditions. Gels were transferred to nitrocellulose membranes using the BioRad mini trans-blot system, blocked in 5% skim milk in tris-buffered saline (TBS) for 1 h and incubated in primary antibody overnight for 16 h at 4° C. Membranes were then exposed to horse radish peroxidase conjugated secondary antibodies and visualized using EZ-ECL chemiluminescent reagent (Froggabio). Band intensities were quantified using ImageJ software ([…]) against membranes reprobed for housekeeping proteins.
Cells were plated in 4-well chamber slides and incubated in complete DMEM for 24 h and exposed to treatments 24 h later for an additional 24 h. Cells were fixed with 4% paraformaldehyde for 30 minutes and washed with either non-permeabilizing, or permeabilizing PBS containing 0.025% Triton-X. Cells were then blocked with 1% bovine serum albumin (BSA) for 30 minutes and stained with anti-GFP antibody for 1 h in PBS containing 1% BSA. Afterwards, cells were washed and incubated with Alexa 488 fluorescently-labelled secondary antibodies (Thermofisher Scientific), as well as the DAPI nuclear stain. Slides were then mounted with permafluor and visualized using the EVOS FL colour imaging system at either 20 or 40× magnification.
RNA purification/isolation was performed using RNeasy mini kits (Qiagen) and normalized to 2 μg RNA using a NanoDrop® spectrophotometer. Samples were then reverse transcribed into cDNA using Superscript Vilo cDNA Synthesis kit (Thermofisher Scientific). Real-time PCR was executed with Fast SYBR Green (Thermo Fisher Scientific) using the ΔΔct method on the ViiA7 real-time PCR platform (Thermofisher Scientific).
Therefore, the effect of CF on TG-; induced SREBP2 activation was examined. […] SREBP2 activity was then examined at the protein level in HuH7 cells transfected with a plasmid encoding GFP driven by the sterol regulatory element (SRE-GFP; FIG. 2E to G). […] GFP expression was also visualized via immunofluorescent staining and quantified using ImageJ Software.

ER Ca^2+ levels = test: ER Ca2+ in HuH7 cells (D1ER, Mag-Fluo-4, TG-induced efflux); assay type: cell-based, human; details: TG 100 nM, CDN 100 μM, CF 200 μM, 24 h
Protocol: Intracellular Ca^2+ in Huh7 and HepG2 cells was measured using a high-affinity Ca^2+ indicator, Fura-2-AM (Thermofisher Scientific). ER Ca^2+ levels were assessed using the low-affinity Ca^2+ indicator, Mag-Fluo-4, and via transfection of cells with D1ER. The D1ER plasmid encodes an ER-resident calcium binding protein linked to a fluorescent protein and increases in fluorescence intensity upon Ca^2+ binding (7). For assessment using indicators, cells were plated in black clear-bottom 96-well plates to a confluence of 70-75% and treated with Ca^2+ modulating agents for 24 h (n=6). Cells were then washed and incubated with Fura-2-AM (2 μM) or Mag-Fluo-4 (2 μM) for 45 minutes at 37° C. in HBSS containing 20 mM HEPES and 2% pluronic acid v/v (Thermofisher Scientific). Fluorescence intensity of intracellular Fura-2-AM was measured at two distinct wavelengths (ex 340/em 515 and ex 380/em 515), following three consecutive washes, to assess bound and unbound states using a SpectraMax® GeminiEM fluorescent spectrophotometer (Molecular Devices, Sunnyvale, California, USA). Fluorescence intensity of Mag-Fluo-4 was quantified at a single wavelength (ex 495/em 515). […] Twenty-four h later, cells were treated with Ca^2+ modulating agents for an additional 24 h and quantified (ex 495/em 515) using a SpectraMax® GeminiEM fluorescent spectrophotometer.
Among the many intracellular effects of CF on the cell, its ability to increase intracellular Ca^2+ levels is well-studied (Echeverri, D., et al., 2010). […] ER Ca^2+ levels were then examined in cells transfected with D1ER; a genetically-encoded ER-resident fluorescence resonance energy transfer (FRET)-based […] chameleon Ca^2+ sensor, which increases in fluorescence intensity upon Ca^2+ binding (Palmer, A. E., et al., 2004). The low-affinity Ca^2+ indicator, Mag-Fluo-4, was also utilized for the direct assessment of ER Ca^2+ and increases in fluorescence intensity upon Ca^2+ binding (Diercks, B. P., et al., 2017; Lebeau, P., et al., 2021). […] ER Ca^2+ content was also assessed indirectly with the high affinity Ca^2+ dye, fura-2-AM (FIG. 6 B). […]

| SMILES | activation and nuclear localization of SREBP2 (SREBP2) | ER Ca^2+ levels (ER Ca^2+ levels) | re-localization of SREBP2 to the nucleus (SREBP2; HuH7, TG-treated, immunofluorescence) | nuclear SREBP2 (nSREBP2) and SRE-driven GFP expression (SREBP2; HuH7 transfected with SRE-GFP, presence and absence of TG, listed as CF) | SREBP2 expression (SREBP2; PMH, PHH, HepG2, real-time PCR) |
| --- | --- | --- | --- | --- | --- |
| Cc1ccc2cccc(NC(=O)c3ccc(OC(C)C)cc3)c2n1 [CDN] | antagonized the activation and nuclear localization of SREBP2 | increased ER Ca^2+ levels |  |  |  |
| C/C=C(/C)C(=O)O[C@H]1C(C)=C2[C@H]([C@@H]1OC(=O)CCCCCCC)[C@@](C)(OC(C)=O)C[C@H](OC(=O)CCC)[C@@]1(O)[C@H]2OC(=O)[C@@]1(C)O [TG, thapsigargin] | opposite effect | reduced ER Ca^2+ levels |  |  |  |
| Cn1c(=O)c2c(ncn2C)n(C)c1=O [caffeine, 1,3,7-Trimethylxanthine] | antagonized the activation and nuclear localization of SREBP2 | increased ER Ca^2+ levels | attenuated the re-localization of SREBP2 | blocked the nuclear/activated isoform of SREBP2; also recorded: blocks SREBP2 activation | blocked the expression of SREBP2 |
